Reference: PubChem BioAssay (NCI)
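Following 48 hours of exposure in 96-well plates, responses at five concentrations were used to interpolate endpoints linearly. Abbreviation: GI50, concentration required for 50% inhibition of growth. The concentration for full growth arrest is given as TGI.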

Experiments:
Assay in all cases: NCI anticancer screen, dose series, 48 h
DU-145 prostate = test system: DU-145 prostate
NCI-H226 lung = test system: NCI-H226 lung
ACHN renal = test system: ACHN renal
CCRF-CEM leukemia = test system: CCRF-CEM leukemia
M14 melanoma = test system: M14 melanoma
OVCAR-3 ovarian = test system: OVCAR-3 ovarian
UO-31 renal = test system: UO-31 renal
A549 NSCLC = test system: A549 NSCLC
SK-MEL-5 melanoma = test system: SK-MEL-5 melanoma
UACC-62 melanoma = test system: UACC-62 melanoma
HCC-2998 colon = test system: HCC-2998 colon
HOP-62 NSCLC = test system: HOP-62 NSCLC
CAKI-1 renal = test system: CAKI-1 renal
OVCAR-4 ovarian = test system: OVCAR-4 ovarian
EKVX NSCLC = test system: EKVX NSCLC
KM12 colon = test system: KM12 colon
HS 578T breast = test system: HS 578T breast
SF-268 CNS = test system: SF-268 CNS
MCF7 breast = test system: MCF7 breast
NCI/ADR-RES ovarian = test system: NCI/ADR-RES ovarian
MDA-MB-231 breast = test system: MDA-MB-231 breast
HCT-15 colon = test system: HCT-15 colon
MOLT-4 leukemia = test system: MOLT-4 leukemia
OVCAR-5 ovarian = test system: OVCAR-5 ovarian
K-562 leukemia = test system: K-562 leukemia
MALME-3M melanoma = test system: MALME-3M melanoma
OVCAR-8 ovarian = test system: OVCAR-8 ovarian
HL-60(TB) leukemia = test system: HL-60(TB) leukemia
SNB-75 CNS = test system: SNB-75 CNS
TK-10 renal = test system: TK-10 renal
PC-3 prostate = test system: PC-3 prostate
HOP-92 NSCLC = test system: HOP-92 NSCLC
LOX IMVI melanoma = test system: LOX IMVI melanoma
U251 CNS = test system: U251 CNS
COLO 205 colon = test system: COLO 205 colon
SK-MEL-2 melanoma = test system: SK-MEL-2 melanoma
T-47D breast = test system: T-47D breast
MDA-MB-435 = test system: MDA-MB-435
SK-OV-3 ovarian = test system: SK-OV-3 ovarian
NCI-H522 lung = test system: NCI-H522 lung
SF-539 CNS = test system: SF-539 CNS
SK-MEL-28 melanoma = test system: SK-MEL-28 melanoma
HT29 colon = test system: HT29 colon
SW-620 colon = test system: SW-620 colon
786-0 renal = test system: 786-0 renal
NCI-H460 lung = test system: NCI-H460 lung
IGROV1 ovarian = test system: IGROV1 ovarian
SN12C renal = test system: SN12C renal
SR leukemia = test system: SR leukemia
BT-549 breast = test system: BT-549 breast
NCI-H23 lung = test system: NCI-H23 lung
A498 renal = test system: A498 renal
HCT-116 colon = test system: HCT-116 colon
UACC-257 melanoma = test system: UACC-257 melanoma
SNB-19 CNS = test system: SNB-19 CNS
RPMI-8226 leukemia = test system: RPMI-8226 leukemia
SF-295 CNS = test system: SF-295 CNS

`O=C(CCCCCCNC(=O)C(O)(O)C(F)(F)F)Nc1ncc(-c2ccccc2)s1` was tested, and the GI50 (DU-145 prostate) was 5.26 µM, the TGI (DU-145 prostate) was > 23.5 µM and the GI50 (NCI-H226 lung) was 5.58 µM. The TGI (NCI-H226 lung) was > 23.5 µM, the GI50 (ACHN renal) was 3.56 µM and the TGI (ACHN renal) was 15.3 µM. The GI50 (CCRF-CEM leukemia) was 2.93 µM, the TGI (CCRF-CEM leukemia) was > 23.5 µM and the GI50 (M14 melanoma) was 5.32 µM. The TGI (M14 melanoma) was > 23.5 µM, the GI50 (OVCAR-3 ovarian) was 2.38 µM and the TGI (OVCAR-3 ovarian) was 5.97 µM. For the same molecule, the GI50 (UO-31 renal) was 3.72 µM, the TGI (UO-31 renal) was 14 µM and the GI50 (A549 NSCLC) was 5.96 µM. The TGI (A549 NSCLC) was > 23.5 µM, the GI50 (SK-MEL-5 melanoma) was 3.46 µM and the TGI (SK-MEL-5 melanoma) was 7.22 µM. The GI50 (UACC-62 melanoma) was 1.65 µM, the TGI (UACC-62 melanoma) was 5.61 µM and the GI50 (HCC-2998 colon) was 4.71 µM. For the same molecule, the TGI (HCC-2998 colon) was 13.5 µM, the GI50 (HOP-62 NSCLC) was 4.93 µM and the TGI (HOP-62 NSCLC) was > 23.5 µM. The GI50 (CAKI-1 renal) was 5.6 µM, the TGI (CAKI-1 renal) was > 23.5 µM and the GI50 (OVCAR-4 ovarian) was 11.1 µM. The TGI (OVCAR-4 ovarian) was > 23.5 µM, the GI50 (EKVX NSCLC) was 8.16 µM and the TGI (EKVX NSCLC) was > 23.5 µM. For the same molecule, the GI50 (KM12 colon) was 4.51 µM, the TGI (KM12 colon) was > 23.5 µM and the GI50 (HS 578T breast) was 2.62 µM. It also gave a TGI (HS 578T breast) of 18.4 µM, a GI50 (SF-268 CNS) of 5.58 µM and a TGI (SF-268 CNS) of 17.8 µM. For the same molecule, the GI50 (MCF7 breast) was 7.19 µM, the TGI (MCF7 breast) was > 23.5 µM and the GI50 (NCI/ADR-RES ovarian) was 4.27 µM. The TGI (NCI/ADR-RES ovarian) was 17.1 µM, the GI50 (MDA-MB-231 breast) was 2.48 µM and the TGI (MDA-MB-231 breast) was 14.9 µM. It also gave a GI50 (HCT-15 colon) of 3.99 µM, a TGI (HCT-15 colon) of 10.5 µM and a GI50 (MOLT-4 leukemia) of 1.3 µM. For the same molecule, the TGI (MOLT-4 leukemia) was > 23.5 µM, the GI50 (OVCAR-5 ovarian) was 2.07 µM and the TGI (OVCAR-5 ovarian) was 13.6 µM. For the same molecule, the GI50 (K-562 leukemia) was 1.26 µM, the TGI (K-562 leukemia) was > 23.5 µM and the GI50 (MALME-3M melanoma) was 1.79 µM. The TGI (MALME-3M melanoma) was 14.2 µM, the GI50 (OVCAR-8 ovarian) was 2.9 µM and the TGI (OVCAR-8 ovarian) was > 23.5 µM. The GI50 (HL-60(TB) leukemia) was 3.53 µM, the TGI (HL-60(TB) leukemia) was > 23.5 µM and the GI50 (SNB-75 CNS) was 1.33 µM. For the same molecule, the TGI (SNB-75 CNS) was > 23.5 µM, the GI50 (TK-10 renal) was 0.679 µM and the TGI (TK-10 renal) was > 23.5 µM. The GI50 (PC-3 prostate) was 3.39 µM, the TGI (PC-3 prostate) was > 23.5 µM and the GI50 (HOP-92 NSCLC) was 0.695 µM. It also gave a TGI (HOP-92 NSCLC) of 4.26 µM, a GI50 (LOX IMVI melanoma) of 2.52 µM and a TGI (LOX IMVI melanoma) of 5.79 µM. The GI50 (U251 CNS) was 3.07 µM, the TGI (U251 CNS) was 10.8 µM and the GI50 (COLO 205 colon) was 3.5 µM. It also gave a TGI (COLO 205 colon) of 10.5 µM, a GI50 (SK-MEL-2 melanoma) of 3.64 µM and a TGI (SK-MEL-2 melanoma) of 14.6 µM. For the same molecule, the GI50 (T-47D breast) was 3.73 µM, the TGI (T-47D breast) was > 23.5 µM and the GI50 (MDA-MB-435) was 4.45 µM. For the same molecule, the TGI (MDA-MB-435) was > 23.5 µM, the GI50 (SK-OV-3 ovarian) was 3.51 µM and the TGI (SK-OV-3 ovarian) was 17.6 µM. It also gave a GI50 (NCI-H522 lung) of 3.67 µM, a TGI (NCI-H522 lung) of 15.6 µM and a GI50 (SF-539 CNS) of 5.63 µM. For the same molecule, the TGI (SF-539 CNS) was > 23.5 µM, the GI50 (SK-MEL-28 melanoma) was 3.29 µM and the TGI (SK-MEL-28 melanoma) was > 23.5 µM. For the same molecule, the GI50 (HT29 colon) was 2.72 µM, the TGI (HT29 colon) was > 23.5 µM and the GI50 (SW-620 colon) was 2.4 µM. The TGI (SW-620 colon) was 9.91 µM, the GI50 (786-0 renal) was 3.8 µM and the TGI (786-0 renal) was > 23.5 µM. The GI50 (NCI-H460 lung) was 2.57 µM, the TGI (NCI-H460 lung) was > 23.5 µM and the GI50 (IGROV1 ovarian) was 3.23 µM. For the same molecule, the TGI (IGROV1 ovarian) was 9.98 µM, the GI50 (SN12C renal) was 3.75 µM and the TGI (SN12C renal) was > 23.5 µM. For the same molecule, the GI50 (SR leukemia) was 1.01 µM, the TGI (SR leukemia) was > 23.5 µM and the GI50 (BT-549 breast) was 2.47 µM. For the same molecule, the TGI (BT-549 breast) was 16.6 µM, the GI50 (NCI-H23 lung) was 4.56 µM and the TGI (NCI-H23 lung) was > 23.5 µM. It also gave a GI50 (A498 renal) of 0.493 µM, a TGI (A498 renal) of 5.68 µM and a GI50 (HCT-116 colon) of 0.7 µM. For the same molecule, the TGI (HCT-116 colon) was > 23.5 µM, the GI50 (UACC-257 melanoma) was 4.91 µM and the TGI (UACC-257 melanoma) was > 23.5 µM. For the same molecule, the GI50 (SNB-19 CNS) was 4.81 µM, the TGI (SNB-19 CNS) was 22 µM and the GI50 (RPMI-8226 leukemia) was 1.96 µM. The TGI (RPMI-8226 leukemia) was > 23.5 µM, the GI50 (SF-295 CNS) was 3.49 µM and the TGI (SF-295 CNS) was 8.88 µM.
